Values after ≈ are worked out from the molar mass of the structure shown. Counter-ions that a name gives are not always drawn. Like-named read-outs stand apart in the source and are kept apart here.
What was measured:
A1 receptor = A1 receptor (Rattus norvegicus (Rat), UniProt P25099); assay: A1 receptor GTP shift binding assay with rat brain membranes and [3H]DPCPX; settings: rat brain membranes, 0.4 nM [3H]DPCPX, presence and absence of 1 mM GTP
Protocol: B-6. GTP Shift Experiment
Preparation of the Brain Membrane
The brains of male Wistar rats are removed and immediately transferred into an ice-cooled 0.32 mol/l sucrose solution. The tissue is comminuted using a glass-Teflon homogenizer and then centrifuged (1000×g for 10 minutes). The supernatant is then ultracentrifuged at 30 000 g for 30 minutes. The pellet obtained in this manner is resuspended in 10 ml of water and allowed to stand on ice for 30 minutes. After a final centrifugation step at 48 000 g for 10 min, the membranes are resuspended in 50 mmol/l Tris-HCl buffer, pH 7.4, and incubated with 2 U/ml of adenosine deaminase at 37° C. for 30 min. This is followed by a protein determination according to Bradford. The membranes are frozen in small aliquots and stored at −80° C. until required for the binding assay.
The A1 receptor GTP shift binding assay is carried out using rat brain membranes and 0.4 nM [^3H] […] 10 μg of membrane protein are incubated at 37° C. for 20 min with 0.4 nM [^3H]DPCPX and adenosine A1 agonists in various concentrations in buffer (50 mM tris-HCl, pH 7.4, 2 U/ml ADA) in the presence and absence of 1 mM guanosine triphosphate (GTP). […] The radioactivity on the filter is measured with addition of 100 μl of scintillation cocktail in a Microbeta TriLux beta counter (PerkinElmer, Massachusetts, USA). […]

[1] = Determination of the solubility; type: physicochemical; settings: kinetic from dmso stock
Protocol: B-8. Determination of the Solubility
• PBS buffer pH 6.5: 90.00 g of NaCl p.a. (for example from Merck, Art. No. 1.06404.1000), 13.61 g of KH2PO4 p.a. (for example from Merck, Art. No. 1.04873.1000) and 83.35 g of 1 N aqueous sodium hydroxide solution (for example from Bernd Kraft GmbH, Art. No. 01030.4000) are weighed into a 1 liter measuring flask, the flask is filled with distilled water to 1 liter and the mixture is stirred for 1 hour. Using 1 N hydrochloric acid (for example from Merck, Art. No. 1.09057.1000) the pH is then adjusted to 6.5. • PEG/water solution (30:70 v/v): 30 ml of polyethylene glycol 400 (for example from Merck, Art. No. 8.17003.1000) and 70 ml of distilled water are homogenized in a 100 ml measuring flask. • PEG/PBS buffer pH 6.5 (80:20 v/v): 80 ml of polyethylene glycol 400 (for example from Merck, Art. No. 8.17003.1000) and 20 ml of PBS buffer pH 6.5 are homogenized in a 100 ml measuring flask. • Dimethyl sulfoxide (for example from Baker, Art. No. 7157.2500) • Distilled water. Preparation of the Starting Solution (Original Solution):
At least 4 mg of the test substance are weighed accurately into a wide-necked 10 mm screw V vial (from Glastechnik Gräfenroda GmbH, Art. No. 8004-WM-H/V15μ) with fitting screw cap and septum, in a pipetting robot DMSO is added to a concentration of 50 mg/ml and the mixture is shaken for 10 minutes.
Preparation of the Calibration Solutions:
Preparation of the Starting Solution for Calibration Solutions (Stock Solution):
With the aid of a pipetting robot, 10 μl of the original solution are transferred into a microtiter plate and made up with DMSO to a concentration of 600 μg/ml. The sample is shaken until everything has gone into solution.
Calibration Solution 1 (20 μg/ml):
1000 μl of DMSO are added to 34.4 μl of the stock solution, and the mixture is homogenized.
Calibration Solution 2 (2.5 μg/ml):
700 μl of DMSO are added to 100 μl of calibration solution 1, and the mixture is homogenized.
Preparation of the Sample Solutions:
Sample Solution for Solubilities of Up to 5 g/liter in PBS Buffer pH 6.5:
10 μl of the original solution are transferred into a microtiter plate, and 1000 μl of PBS buffer pH 6.5 are added.
Sample Solution for Solubilities of Up to 5 g/liter in PEG/Water (30:70):
10 μl of the original solution are transferred into a microtiter plate, and 1000 μl of PEG/water (30:70) are added.
Sample Solution for Solubilities of Up to 5 g/liter in PEG/PBS Buffer pH 6.5 (80:20):
10 μl of the original solution are transferred into a microtiter plate, and 1000 μl of PEG/PBS buffer pH 6.5 (80:20) are added.
The sample solutions prepared in this manner are shaken at 1400 rpm in a temperature-adjustable shaker (for example Eppendorf Thermomixer comfort Art. No. 5355 000.011 with interchangeable block Art. No. 5362.000.019) at 20° C. for 24 hours. In each case 180 μl are taken from these solutions and transferred into Beckman Polyallomer Centrifuge Tubes (Art. No. 343621). These solutions are centrifuged at about 223 000×g for one hour (for example Beckman Optima L-90K Ultracentrifuge with Type 42.2 Ti Rotor at 42 000 rpm). From each of the sample solutions, 100 μl of the supernatant are removed and diluted 1:5 and 1:100 with DMSO. From each dilution, a sample is transferred into a vessel suitable for HPLC analysis.
The samples are analyzed by RP-HPLC. Quantification is carried out using a two-point calibration curve of the test compound in DMSO. The solubility is expressed in mg/liter. Analysis sequence: 1) calibration solution […]; 2) calibration solution […]; 3) sample solution 1:5; 4) sample solution 1:100. […]

adenosine A1 receptor = adenosine A1 receptor (Homo sapiens (Human), UniProt P30542); assay: Indirect determination of adenosine agonism by gene expression (luciferase reporter), A1 cells; type: cell-based; settings: CHO cells stably transfected with adenosine A1 receptor; 1 μM forskolin; 50% inhibition of luciferase response
Chain of adenosine A1 receptor (P30542 whole entry): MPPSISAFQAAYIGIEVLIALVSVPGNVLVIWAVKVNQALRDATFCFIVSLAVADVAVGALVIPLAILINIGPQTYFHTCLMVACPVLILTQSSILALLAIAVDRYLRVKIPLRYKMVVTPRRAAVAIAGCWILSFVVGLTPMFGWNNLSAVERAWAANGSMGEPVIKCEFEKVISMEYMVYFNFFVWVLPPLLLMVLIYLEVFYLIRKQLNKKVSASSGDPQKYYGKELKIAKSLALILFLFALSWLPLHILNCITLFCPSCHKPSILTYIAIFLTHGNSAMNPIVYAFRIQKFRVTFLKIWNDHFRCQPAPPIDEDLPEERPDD
From the text: (§1) B-1. Indirect Determination of the Adenosine Agonism by Way of Gene Expression
(§2) Cells of the CHO (Chinese Hamster Ovary) permanent line are transfected stably with the cDNA for the adenosine receptor subtypes A1, A2a and A2b. The adenosine A1 receptors are coupled to the adenylate cyclase by way of Gi proteins, while the adenosine A2a and A2b receptors are coupled by way of Gs proteins. In correspondence with this, the formation of cAMP in the cell is inhibited or stimulated, respectively. After that, expression of the luciferase is modulated by way of a cAMP-dependent promoter. The luciferase test is optimized, with the aim of high sensitivity and reproducibility, low variance and good suitability for implementation on a robot system, by varying several test parameters, such as cell density, duration of the growth phase and the test incubation, forskolin concentration and medium composition. The following test protocol is used for pharmacologically characterizing cells and for the robot-assisted substance screening:
(§3) The stock cultures are grown, at 37° C. and under 5% CO2, in DMEM/F12 medium containing 10% FCS (fetal calf serum) and in each case split 1:10 after 2-3 days. Test cultures are seeded in 384-well plates with 2000 cells per well and grown at 37° C. for approx. 48 hours. The medium is then replaced with a physiological sodium chloride solution (130 mM sodium chloride, 5 mM potassium chloride, 2 mM calcium chloride, 20 mM HEPES, 1 mM magnesium chloride hexahydrate, 5 mM sodium bicarbonate, pH 7.4). The substances to be tested, which are dissolved in DMSO, are pipetted into the test cultures (maximum final concentration of DMSO in the test mixture: 0.5%) in a dilution series of from 5×10^−11 M to 3×10^−6 M (final concentration). 10 minutes later, forskolin is added to the A1 cells and all the cultures are subsequently incubated at 37° C. for four hours. After that, 35 μl of a solution which is composed of 50% lysis reagent (30 mM disodium hydrogenphosphate, 10% glycerol, 3% TritonX100, 25 mM TrisHCl, 2 mM dithiotreitol (DTT), pH 7.8) and 50% luciferase substrate solution (2.5 mM ATP, 0.5 mM luciferin, 0.1 mM coenzyme A, 10 mM tricine, 1.35 mM magnesium sulfate, 15 mM DTT, pH 7.8) are added to the test cultures, which are shaken for approx. 1 minute and the luciferase activity is measured using a camera system. The EC50 values are determined, i.e., the concentrations at which 50% of the luciferase response is inhibited in the case of the A1 cell, and, respectively, 50% of the maximum stimulation with the corresponding substance is achieved in the case of the A2b and A2a cells. […] Pharmacol., 357, 1-9 (1998)].
(§4) Table A below lists the EC50 values of representative working examples for the receptor stimulation on adenosine A1, A2a and A2b receptor subtypes: […]

adenosine A2a receptor = adenosine A2a receptor (Homo sapiens (Human), UniProt P29274); assay: Indirect determination of adenosine agonism by gene expression (luciferase reporter), A2a cells; type: cell-based; settings: CHO cells stably transfected with adenosine A2a receptor, 50% of maximum stimulation
Chain of adenosine A2a receptor (P29274 whole entry): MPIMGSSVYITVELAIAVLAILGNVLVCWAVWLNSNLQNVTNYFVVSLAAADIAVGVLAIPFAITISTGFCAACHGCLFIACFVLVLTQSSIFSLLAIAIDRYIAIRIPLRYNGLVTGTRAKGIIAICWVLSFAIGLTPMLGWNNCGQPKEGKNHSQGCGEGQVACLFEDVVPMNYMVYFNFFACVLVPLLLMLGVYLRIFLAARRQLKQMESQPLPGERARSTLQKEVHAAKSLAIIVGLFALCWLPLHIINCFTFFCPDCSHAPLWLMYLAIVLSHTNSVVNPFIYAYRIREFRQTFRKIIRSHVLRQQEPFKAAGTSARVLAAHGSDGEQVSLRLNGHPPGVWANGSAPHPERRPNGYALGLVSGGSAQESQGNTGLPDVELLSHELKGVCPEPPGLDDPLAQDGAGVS
From the text: as §1, §2, §3, §4

adenosine A2b receptor = adenosine A2b receptor (Homo sapiens (Human), UniProt P29275); assay: Indirect determination of adenosine agonism by gene expression (luciferase reporter), A2b cells; type: cell-based; settings: CHO cells stably transfected with adenosine A2b receptor, 50% of maximum stimulation
Chain of adenosine A2b receptor (P29275 whole entry): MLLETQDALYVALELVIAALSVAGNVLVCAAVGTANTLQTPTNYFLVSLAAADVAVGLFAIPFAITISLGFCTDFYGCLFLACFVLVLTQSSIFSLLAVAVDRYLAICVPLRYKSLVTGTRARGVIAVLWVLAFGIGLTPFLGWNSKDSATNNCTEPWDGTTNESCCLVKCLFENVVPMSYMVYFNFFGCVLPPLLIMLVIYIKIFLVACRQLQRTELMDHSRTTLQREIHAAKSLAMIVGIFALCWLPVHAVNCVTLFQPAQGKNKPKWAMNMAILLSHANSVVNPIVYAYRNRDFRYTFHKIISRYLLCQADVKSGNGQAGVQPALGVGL
From the text: as §1, §2, §3, §4

[2] = PEG 400/water solution (30:70 v/v), aqueous with cosolvent or surfactant or cyclodextrin, PEG 400/water (30:70 v/v), 20° C., read-out: Solubility [mg/liter] PEG/water solution (30:70 v/v)
[3] = aqueous buffer, PBS buffer pH 6.5, 20° C., read-out: Solubility [mg/liter] PBS buffer

Chain of A1 receptor (P25099 whole entry): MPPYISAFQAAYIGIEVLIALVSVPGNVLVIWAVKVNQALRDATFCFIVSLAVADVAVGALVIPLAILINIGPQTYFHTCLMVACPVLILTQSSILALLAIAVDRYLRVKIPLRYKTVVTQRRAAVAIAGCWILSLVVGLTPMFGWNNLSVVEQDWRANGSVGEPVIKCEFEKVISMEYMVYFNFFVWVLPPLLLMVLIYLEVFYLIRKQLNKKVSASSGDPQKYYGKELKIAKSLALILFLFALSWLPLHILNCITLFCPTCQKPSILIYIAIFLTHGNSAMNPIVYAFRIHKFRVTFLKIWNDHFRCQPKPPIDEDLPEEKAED

| GTP Shift (A1 receptor) | solubility at 24 h [1, 2] [mg/L] | EC50 (adenosine A1 receptor) [nM] | EC50 (adenosine A2a receptor) [nM] | EC50 (adenosine A2b receptor) [nM] | Compound | solubility at 24 h [1, 3] [mg/L] |
| --- | --- | --- | --- | --- | --- | --- |
| 1.5 | 90 (≈ 196 µM) | – | – | – | CC(Sc1nc(N)c(C#N)c(-c2ccc(OCCO)cc2)c1C#N)c1cccc(C(N)=O)c1 (single isomer, unassigned) [Example 61, 3-[1-({6-Amino-3,5-dicyano-4-[4-(2-hydroxyethoxy)phenyl]pyridin-2-yl}sulfanyl)ethyl]benzenecarboxamide] | – |
| 2.8 | 260 (≈ 549 µM) | – | – | – | COCCOc1ccc(-c2c(C#N)c(N)nc(SC(C)c3cccc(C(N)=O)c3)c2C#N)cc1 (single isomer, unassigned) [Example 64, 3-[1-({6-Amino-3,5-dicyano-4-[4-(2-methoxyethoxy)phenyl]pyridin-2-yl}sulfanyl)ethyl]benzenecarboxamide] | – |
| – | 210 (≈ 492 µM) | 0.08 | 108 | 46 | N#Cc1c(N)nc(SCc2ccnc(C(=O)NC3CC3)c2)c(C#N)c1-c1ccccc1 [Example 13] | – |
| – | 53 (≈ 138 µM) | 0.3 | 117 | 3.9 | N#Cc1c(N)nc(SCc2cccc(C(N)=O)c2)c(C#N)c1-c1ccccc1 [Example 33] | 5 (≈ 13 µM) |
| – | – | 0.2 | 272 | 1450 | CNC(=O)c1cc(CSc2nc(N3CC(O)C3)c(C#N)c(-c3ccccc3)c2C#N)ccn1 [Example 70, 4-({[3,5-Dicyano-6-(3-hydroxyazetidin-1-yl)-4-phenylpyridin-2-yl]sulfanyl}methyl)-N-methylpyridine-2-carboxamide] | – |
| – | – | 0.2 | 1010 | 175 | CNC(=O)c1cc(CSc2nc(N(C)CCO)c(C#N)c(-c3ccccc3)c2C#N)ccn1 [Example 75, 4-[({3,5-Dicyano-6-[(2-hydroxyethyl)(methyl)amino]-4-phenylpyridin-2-yl}sulfanyl)methyl]-N-methylpyridine-2-carboxamide] | – |
| – | – | 0.1 | 355 | 393 | CNC(=O)c1cc(CSc2nc(NCCO)c(C#N)c(-c3ccc(OCCO)nc3)c2C#N)ccn1 [Example 78] | – |
| – | – | 0.2 | 2180 | 593 | CNC(=O)c1cc(CSc2nc(NC[C@H](O)CO)c(C#N)c(-c3ccccc3)c2C#N)ccn1 [Example 83] | – |
| – | – | 0.3 | 1540 | 600 | CCNC(=O)c1cccc(CSc2nc(N3CCCC3)c(C#N)c(-c3ccc(OCCO)cc3)c2C#N)c1 [Example 98, 3-[({3,5-Dicyano-4-[4-(2-hydroxyethoxy)phenyl]-6-pyrrolidin-1-ylpyridin-2-yl}sulfanyl)methyl]-N-ethylbenzenecarboxamide] | – |
| – | – | 0.2 | 440 | 163 | N#Cc1c(N)nc(SCc2cccc(C(=O)NCCN)c2)c(C#N)c1-c1ccccc1 [Example 101, 3-{[(6-Amino-3,5-dicyano-4-phenylpyridin-2-yl)sulfanyl]methyl}-N-(2-aminoethyl)benzenecarboxamide hydrochloride] | – |

| Compound | GTP Shift (A1 receptor) | solubility at 24 h [1, 2] [mg/L] | EC50 (adenosine A1 receptor) [nM] | EC50 (adenosine A2a receptor) [nM] | EC50 (adenosine A2b receptor) [nM] | solubility at 24 h [1, 3] [mg/L] |
| --- | --- | --- | --- | --- | --- | --- |
| N#Cc1c(NC[C@@H](O)CO)nc(SCc2cccc(C(N)=O)c2)c(C#N)c1-c1ccccc1 [Example 99, 3-{[(3,5-Dicyano-6-{[(2R)-2,3-dihydroxypropyl]amino}-4-phenylpyridin-2-yl)sulfanyl]methyl}-benzenecarboxamide] | – | 440 (≈ 957 µM) | 0.9 | – | – | 9 (≈ 19.6 µM) |

Source: US9187428B2, “Substituted dicyanopyridines and use thereof” (Bayer Intellectual Property GmbH, priority 2010, dated 2015)
